Measurements taken from PMC7696940, “Effects of Rationally Designed Physico-Chemical Variants of the Peptide PuroA on Biocidal Activity towards Bacterial and Mammalian Cells” (International Journal of Molecular Sciences, 2020).
≈ marks a conversion by molar mass, not a printed value. Where no end group is shown, it is not given here.

How the values were obtained:
[1] = test system: E. coli ATCC25922; type: cell-based, Escherichia coli; conditions: MHB; for MIC E. coli, No NaCl: 0 mM NaCl; for MIC E. coli, No NaCl / MIC E. coli, With 50mM NaCl / MIC E. coli, With 100mM NaCl / MIC E. coli, With 150mM NaCl: triplicate, mode; for MIC E. coli ATCC25922: 37 °C overnight, A595, mode of three independent experiments
Description: (§1) The activity of peptides was determined against the Gram-positive Staphylococcus aureus (ATCC 25923), and the Gram-negative Escherichia coli (ATCC 25922) and Pseudomonas aeruginosa (ATCC 9027) bacteria. Selected peptides were also tested against two clinical isolates of methicillin-resistant Staphylococcus aureus (MRSA), M173525 and M180920, kindly provided by Dr P. B. Ward (Microbiology Department, Austin and Repatriation Medical Centre, Heidelberg West, Victoria, Australia). The Minimum inhibitory concentration (MIC) of peptides was determined by the microtitre broth dilution method, as described in Phillips et al.. Briefly, bacteria were grown in Mueller-Hinton Broth (MHB) at 37 °C overnight with shaking (200 rpm). The cultures were adjusted to 0.5 McFarland turbidity standard (approximately 1 × 10^8 colony forming units (CFU)/mL), then diluted 1:100 in MHB (1 × 10^6 CFU/mL). A total of 75 μL of these suspensions were mixed with 25 μL of peptide solutions (final concentrations 250 to 0.5 μg/mL) and the microtitre plates incubated overnight at 37 °C. Positive growth controls (inoculum and MHB, with no peptide) and sterility controls (0.01% glacial acetic) were also included. Post-incubations, the absorbance of cultures at 595 nm was measured using a microplate reader (POLARstar Omega, Germany). […] To evaluate salt sensitivity of peptides up to physiological levels (150 mM NaCl), overnight cultures of S. aureus and E. coli adjusted to 0.5 McFarland turbidity standard were diluted 1:100 in MHB containing 0, 50, 100 or 150 mM NaCl, and the MICs of peptides determined as above. All tests were conducted in triplicate. The results are shown as the mode of values obtained.

[2] = test system: S. aureus ATCC25923; type: cell-based, Staphylococcus aureus; conditions: MHB; for MIC S. aureus, No NaCl: 0 mM NaCl; for MIC S. aureus, No NaCl / MIC S. aureus, With 50mM NaCl / MIC S. aureus, With 100mM NaCl / MIC S. aureus, With 150mM NaCl: triplicate, mode; for MIC S. aureus ATCC25923: 37 °C overnight, A595, mode of three independent experiments
Description: as §1

[3] = test system: MRSA M173525; type: cell-based, methicillin-resistant Staphylococcus aureus; conditions: clinical isolate; MHB, 37 °C overnight; mode of three independent experiments
Description: as §1

[4] = test system: MRSA M180920; type: cell-based, methicillin-resistant Staphylococcus aureus; conditions: clinical isolate; MHB, 37 °C overnight; mode of three independent experiments
Description: as §1

[5] = test system: MRSA M173525 biofilm; assay: Inhibition of preformed 6 h biofilm (CV and MTT assays); type: cell-based, methicillin-resistant Staphylococcus aureus; conditions: 37 °C, triplicate
Description: The effects of PuroA and other selected peptides (based on their antibacterial activity) on both the initial cell attachment and 6 h preformed biofilms of MRSA on polystyrene were tested as described by Jadhav et al., at their respective 0.5 × MIC, 1 × MIC, and 2 × MIC concentrations. All tests were conducted in triplicate. For testing the inhibition of initial cell attachment, 100 μL of peptide solutions were added to the microtitre plates, then mixed with 100 μL of M173525 cell suspension (1 × 10^6 CFU/mL, cultured in tryptic soy broth medium (TSB; Oxoid) containing 1% glucose), or 100 μL of sterile MilliQ water as negative control. The plates were incubated at 37 °C for 24 h to allow cell attachment. The biofilm formation was then assessed using CV and MTT assays. […] Peptide solutions (100 μL) were then added, the plates incubated at 37 °C for 1 h and the biofilms assessed.
The assay works as an indicator of attached living and non-living biomass. Indirect assessment of cell attachment of MRSA was estimated using the modified CV assay as per Jadhav et al.. After incubations of the plates (for 24 h or 1 h, as above), the culture medium from each well was removed gently and any non-adherent bacteria removed by washing the plates five times with sterile distilled water (dH2O). The plates were air-dried, then oven-dried at 60 °C for 1 h. The biofilm cells in the wells were stained with 100 μL of 1% CV and incubated for 15 min at room temperature. Excess stain was removed by washing the plates three times with sterile dH2O. Ethanol (95%, 125 µL) was transferred to each well to de-stain the cells. The de-staining solution from each well was then transferred to a new plate and its absorbance measured at 595 nm. The percentage inhibition of biomass formation concentration was calculated as: ((OD595 nm control well without peptide − OD5 95 well with peptide)/OD595 nm control well without peptide) × 100. All tests were conducted in triplicate.
A modified methylthiazotetrazolium (MTT) (3-[4,5-dimethyl thiazol-2-yl]-2, 5-diphenyltetrazolium bromide) reduction assay was used, wherein the blue product (MTT salt reduced to formazan by dehydrogenases) is taken as a respiratory indicator of live cells. Briefly, MTT (Sigma-Aldrich, Gillingham, UK) was dissolved in PBS to 5 mg/mL. After incubations of plates (for 24 h or 1 h, as above), the culture medium was gently removed and the plates air-dried. PBS (100 μL) and MTT (5 µL, 5 mg/mL) were added to each well and the plates incubated for 3 h at 37 °C. The insoluble purple product was dissolved in 100 µL of dimethyl sulphoxide (DMSO, Sigma-Aldrich, Gillingham, UK) and the absorbance measured at 570 nm. The % inhibition of metabolic activity was calculated as: ((OD570 nm control well without peptide − OD570 nm well with peptide)/OD570 nm control well without peptide) × 100. All tests were conducted in triplicate.

Compound | MIC E. coli, No NaCl [1] [µg/mL] | MIC E. coli, With 50mM NaCl [1] [µg/mL] | MIC E. coli, With 100mM NaCl [1] [µg/mL] | MIC E. coli, With 150mM NaCl [1] [µg/mL] | MIC E. coli ATCC25922 [1] [µg/mL] | MIC S. aureus, No NaCl [2] [µg/mL] | MIC S. aureus, With 50mM NaCl [2] [µg/mL] | MIC S. aureus, With 100mM NaCl [2] [µg/mL] | MIC S. aureus, With 150mM NaCl [2] [µg/mL] | MIC S. aureus ATCC25923 [2] [µg/mL] | MIC MRSA M173525 [3] [µg/mL] | MIC MRSA M180920 [4] [µg/mL] | % Inhibition of Preformed 6 h MRSA Biofilm after 1 h Incubation, CV ([5]; 0.5 × MIC) [%] | % Inhibition of Preformed 6 h MRSA Biofilm after 1 h Incubation, MTT ([5]; 0.5 × MIC) [%] | % Inhibition of Preformed 6 h MRSA Biofilm after 1 h Incubation, CV ([5]; 1 × MIC) [%] | % Inhibition of Preformed 6 h MRSA Biofilm after 1 h Incubation, MTT ([5]; 1 × MIC) [%] | % Inhibition of Preformed 6 h MRSA Biofilm after 1 h Incubation, CV ([5]; 2 × MIC) [%] | % Inhibition of Preformed 6 h MRSA Biofilm after 1 h Incubation, MTT ([5]; 2 × MIC) [%]
WWRWWKWW-NH2 [WW] | 8 | 8 | 8 | 8 | 8 | 8 | 8 | 8 | 8 | 8 | 4 | 4 | 69 ± 7.8 | 91 ± 3.0 | 71 ± 4.5 | 92 ± 3.5 | 74 ± 2.0 | 95 ± 1.7
CC(C)[C@H](NC(=O)[C@@H]1CCCN1C(=O)[C@@H](N)Cc1ccccc1)C(=O)N[C@H](C(=O)N[C@@H](Cc1c[nH]c2ccccc12)C(=O)N[C@@H](CCCNC(=N)N)C(=O)N[C@@H](Cc1c[nH]c2ccccc12)C(=O)N[C@@H](Cc1c[nH]c2ccccc12)C(=O)N[C@@H](CCCCN)C(=O)N[C@@H](Cc1c[nH]c2ccccc12)C(=O)N[C@@H](Cc1c[nH]c2ccccc12)C(=O)N[C@@H](CCCCN)C(=O)NCC(N)=O)[C@@H](C)O [PuroA] | 16 (≈ 8.59 µM) | 16 (≈ 8.59 µM) | 32 (≈ 17.2 µM) | 64 (≈ 34.4 µM) | 16 (≈ 8.59 µM) | 16 (≈ 8.59 µM) | 16 (≈ 8.59 µM) | 32 (≈ 17.2 µM) | 64 (≈ 34.4 µM) | 16 (≈ 8.59 µM) | 16 (≈ 8.59 µM) | 16 (≈ 8.59 µM) | 68 ± 9.2 | 90 ± 2.5 | 75 ± 7.5 | 92 ± 4.0 | 77 ± 7.0 | 95 ± 2.6
